According to PMC8845285, “Serotoninergic receptor ligands improve Tamoxifen effectiveness on breast cancer cells” (BMC Cancer, 2022):

How the values were obtained:
Assay type in all cases: cell-based, human
ABCC1, ABCG1 and ABCG2 = assay: ABC transporter mRNA levels in MCF7-R cells, qPCR; conditions: Tamoxifen 5 μM, E2 100 nM, 72 h
Protocol: Total RNA was isolated from cells, quantified (NanoDrop spectrophotometer, Life Technologies, Carlsbad, CA, USA) and reverse transcribed according to the manufacturer’s instructions. Semiquantitative PCR and qPCR assays were performed according to manufacturer’s instructions for Bio-Rad T100 thermal cycler and CFX Connect Real Time system (Biorad, Hercules, CA, USA), respectively. Relative gene expression quantification was measured by 2^−ΔΔCt method normalizing for the reference sample using Rps23 (Ribosomal Protein S23) as housekeeping gene.
Cell viability was measured
(§1) (1 picture or pasted object on this page, not shown here)

[1] = test system: Tamoxifen-cultured MCF7 cells; assay: Tamoxifen-cultured MCF7 cell viability, sulforhodamine B assay; conditions: Tamoxifen 5 μM, E2 100 nM, 72 h
Protocol: (§2) Cells were fixed with 50% trichloroacetic acid for at least 2 h at 4 °C, washed with distilled and de-ionized water, air-dryed and stained 30 min with 0.4% sulforhodamine B in 1% acetic acid. Unbound dye was removed and 10 mM tris-HCl solution (pH 7.5) was added to dissolve the protein-bound dye. Cell survival was assessed by optical density determination at 510 nm using a microplate reader.
To further investigate the effect of SER79 and SER68 on Tamoxifen responsiveness and CTGF expression in MCF7 cells, we obtained - by a continuous treatment of 10 days with 1 μM Tamoxifen – a cellular model less sensitive to the drug (Tamoxifen-cultured MCF7). We observed that 20 μM SER79, 20 μM and 40 μM SER68, while not 5 μM SER79, reduced viability of Tamoxifen-cultured MCF7 cells by about 40% (adjp<0.01; Fig. 8a). […] However, in the presence of 20 μM SER79, 20 μM and 40 μM SER68, Tamoxifen elicited a further 40% reduction of viability, similar to that achieved in Tamoxifen-responsive MCF7 cells (adjp<0.01; Fig. 8b).
Fig. 8 Effect of SER79 and SER68 on Tamoxifen-cultured MCF7 cells. MCF7 cells were cultured in presence of Tamoxifen (1 μM) for 10 days. Estrogen-starved MCF7 and Tamoxifen-cultured MCF7 cells (48 h) were (a-c) treated with SER79 (20 μM, 5 μM) or SER68 (40 μ, 20 μM), (b) treated with Tamoxifen (5 μM) in presence of SER79 (20 μM, 5 μM) or SER68 (40 μM, 20 μM). All treatments were carried out in presence of E2 (100 nM) for 72 h. As positive control, the cells were treated with (a-c) E2 alone or (b) E2 in absence or in presence of SER (as indicated, dotted line). a,b Cell viability was assessed by sulforhodamine B assay (see Methods). The results were reported as percentage of viable cells compared to positive control, considered as maximum viability (100%). c mRNA levels of CTGF were determined by qPCR (see Methods and Table 1). Data were normalized on Ribosomal Protein S23 (Rps23) gene as internal standard and reported as CTGF mRNA levels in Tamoxifen-cultured MCF7 relative to those in MCF7 cells (dotted line). a-c Graphs represent the mean ± SD of at least three independent triplicate experiments. * denotes statistically significant values compared with (a,b) positive control (*adjp<0.05, ** adjp<0.01) or (c) MCF7 cells (*pval<0.05); # denotes statistically significant values compared with (b) cells treated with Tamoxifen in absence of SER or (c) untreated Tamoxifen-cultured MCF7 cells (#pval<0.01, ##pval<0.0001)

MCF7-R cells = assay: Tamoxifen-resistant MCF7-R cell viability, sulforhodamine B assay; conditions: up to 6 μM, E2 100 nM, 72 h
Protocol: as §2
MCF7 cells were cultured for 4 months in phenol-red free medium supplemented with 10% (C/S) FBS and continuously exposed to Tamoxifen (1 μM). […] To further validate the degree of drug resistance, the expression levels of ABCC1, ABCG1 and ABCG2 – members of ABC transporter family known as involved in multi-drug resistance – were evaluated by Quantitative Real-Time PCR (qPCR; see below) upon cell treatment with 5 μM Tamoxifen for 72 h.
Fig. 9 Effect of SER79 and SER68 on Tamoxifen-resistant (MCF7-R) cells. a Estrogen starved MCF7-R were treated with SER79 (20 μM, 5 μM) or SER68 (20 μM) in presence of E2 (100 nM). b Estrogen-starved MCF7-R were treated with Tamoxifen (5 μM) in presence of E2 and SER79 (20 μM) or SER68 (20 μM). a,b As positive control, the cells were treated with E2 alone, in absence or in presence of SER (dotted line). After 72 h, cell viability was assessed by sulforhodamine B assay (see Methods). The results were reported as percentage of viable cells compared to positive control, considered as maximum viability (100%). c mRNA levels of CTGF were determined by qPCR (see Methods and Table 1) in MCF7-R cells upon treatment with SER68 (20 μM). Data were normalized on Ribosomal Protein S23 (Rps23) gene as internal standard and reported as CTGF mRNA levels in MCF7-R. a-c Graphs represent the mean ± SD of at least three independent triplicate experiments. * denotes statistically significant values compared with (b) positive control or (c) MCF7 cells (*adjp<0.05; **adjp<0.001). # denotes statistically significant values compared with untreated MCF7-R (#pval<0.05) […]
Figure S3. Establishment of MCF7 Tamoxifen re sista n t(M C F7-R) cells. MCF7 cells were cultured with Tamoxifen (1µM), in absence of E2, for 4 months (M C F7-R). (a-b) MCF7 and MCF7-R cells were treated with in c re a s in gconcentration of Tamoxifen […]
As positive control, cells were treated with E2 alone. Cell viability was measured by sulforhodamine B assay (se e Methods). The re su ltswere re p o rte das percentage of viable cells compared to untreated cells, considered as maximum viability (100%). […]
(a ) * denotes statistically significant values compared with untreated cells […]
as §1

For `CC/C(=C(\c1ccccc1)c1ccc(OCCN(C)C)cc1)c1ccccc1` [Tamoxifen], the “mRNA levels of ABCC1, ABCG1 and ABCG2 in Tamoxifen-treated MCF7-R cells” value (ABCC1, ABCG1 and ABCG2) was “higher”, the “effect of Tamoxifen treatment alone on viability of Tamoxifen-cultured MCF7 cells” value [1] was “did not affect viability” and the “effect of Tamoxifen on MCF7-R cell viability” value (MCF7-R cells) was “did not reduce”.
